Source: patent US10647738B2, “Xylene-based amphiphilic compound and use thereof” (Industry-University Cooperation Foundation Hanyang …, priority 2016, dated 2020)
Several values for one entry are separate records, joined by “and”; a condition that tells them apart may be missing. Identical values can stand only once. Entries after “also recorded” stand apart in the source; their conditions may differ.

How the values were obtained:
[1] = Critical micelle concentration by fluorescence staining with diphenylhexatriene (DPH); type: physicochemical; conditions: aqueous solution
Procedure: While a method for measuring CMC is not particularly limited, a method widely known in the art may be used, and the measurement may be performed by, for example, a fluorescence staining method using diphenylhexatriene (DPH).
(§1) Specifically, the critical micellar concentration (CMC) was measured using fluorescence staining and diphenylhexatriene (DPH), and the hydrodynamic radii (Rh) of the micelles formed by agents were measured through a dynamic light scattering (DLS) experiment. The measured results are shown in Tables 1 and 2, compared with a conventional amphiphilic molecule (detergent), DDM.

[2] = molecular target: T1, human β2 adrenergic receptor (β2AR) (Homo sapiens, UniProt P07550); assay: [3H]-dihydroalprenolol radioligand binding of β2AR purified in detergent; conditions: 10 nM [3H]-DHA, 30 minutes, room temperature
T1 construct: made in house
T1 sequence (P07550 whole entry): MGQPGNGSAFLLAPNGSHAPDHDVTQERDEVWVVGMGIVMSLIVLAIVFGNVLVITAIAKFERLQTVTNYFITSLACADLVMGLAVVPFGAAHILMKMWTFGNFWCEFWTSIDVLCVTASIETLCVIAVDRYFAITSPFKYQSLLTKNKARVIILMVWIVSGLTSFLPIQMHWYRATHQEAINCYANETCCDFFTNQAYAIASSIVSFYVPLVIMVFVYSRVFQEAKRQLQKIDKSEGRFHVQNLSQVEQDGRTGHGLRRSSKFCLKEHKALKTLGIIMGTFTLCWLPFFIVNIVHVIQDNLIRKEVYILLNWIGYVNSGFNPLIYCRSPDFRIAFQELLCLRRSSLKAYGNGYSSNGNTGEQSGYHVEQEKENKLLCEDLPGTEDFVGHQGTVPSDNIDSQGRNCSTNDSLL
Procedure: An activation degree of a receptor (mBBr-β2AR) purified by DDM or XMAs was measured by [^3H]-dihydroalprenolol ([^3H]-DHA) binding.
Specifically, a radioligand binding assay was performed by the following method. β2AR was purified in the presence of 0.1% DDM. After β2AR was reloaded into an M1 Flag column in the presence of 2 mM CaCl2, a DDM (0.1%)-XMA (0.2%) buffer mixture was prepared in a ratio of 50:50, 20:80, 10:90, 5:95 or 0:100. The receptor was eluted in 20×CMC XMA with 5 mM EDTA and 0.2 mg/ml of a free Flag peptide. 0.1 pmol purified β2AR solubilized in DDM, P-XMA-C11, P-XMA-C12, M-XMAs or O-XMAs was incubated with 10 nM of radioactive DHA [^3H]-dihydroalprenolol (DHA) for 30 minutes at room temperature. The mixture was loaded into a G-50 column, and a flow-through was collected with a binding buffer (20 mM HEPES pH 7.5, supplemented with 0.5 mg/ml BSA, 100 mM NaCl), and further filled with 15 ml of a scintillation fluid. Receptor-binding [^3H]DHA was measured with a scintillation counter (Beckman). Non-specific binding of [^3H]-DHA was calculated by adding 1 μM of alprenolol (Sigma) in the same binding reaction. The binding degree of [^3H]-DHA was measured as a column graph.

[3] = Hydrodynamic radius and size distribution of micelles by dynamic light scattering (DLS); type: physicochemical; conditions: for Rh (nm), hydrodynamic radius of micelles: 1.0 wt % stated for M-/O-XMAs (FIG. 37)
Procedure: A method for measuring the radius of a micelle is not particularly limited, but a method well known in the art may be used, and for example, the measurement may be performed using a dynamic light scattering (DLS) experiment.
as §1

[4] = test system: leucine transporter (LeuT); assay: LeuT long-term stability, [3H]-Leu binding by scintillation proximity assay (SPA); type: biochemical, Aquifex aeolicus; conditions: room temperature, 12-day incubation; for LeuT long-term stability (ligand binding activity): CMC+0.04 wt %; for LeuT ligand binding activity maintained: CMC+0.2 wt %
Procedure: An experiment for measuring the structural stability of a LeuT protein due to M-XMAs or O-XMAs was performed. Each amphiphilic compound was used at CMC+0.04 wt % (a) or CMC+0.2 wt % (b), and the ligand-binding activity of LeuT was determined using [^3H]-Leu by scintillation proximity assay (SPA). Measurement was regularly performed at room temperature during a 12-day incubation period.
Specifically, wild-type leucine transporter (LeuT) derived from thermophilic bacteria Aquifex aeolicus was purified according to a previously disclosed protocol (G. Deckert et al., Nature 1998, 392, 353-358). In summary, LeuT was expressed in E. coli C41 (DE3) incubated in lysogeny broth supplemented with 0.1 mg/ml ampicillin. Protein expression was induced by adding isopropyl β-D-thiogalactopyranoside at the final concentration of 0.1 mM. Cell membranes were isolated from disrupted cells (Constant Systems Homogenizers, Kennesaw, Ga.), and solubilized in 1% (w/v) n-dodecyl-β-D-maltopyranoside (DDM; Affymetrix, Santa Clara, Calif.). After solubilization, LeuT was fixed to a chelating Sepharose Fast Flow resin (GE Healthcare), and approximately 90 to 100% pure LeuT was eluted in 20 mM Tris-HCl (pH 7.5), 199 mM KCl, 1 mM NaCl, 0.05% (w/v) DDM and 300 mM imidazole. Afterward, the purified LeuT (approximately 1.2 mg mL^−1) was diluted 10 times with buffer which is the same as that used above and supplemented with M-XMAs and O-XMA, except DDM and imidazole, at the final concentration of CMC+0.04% (w/v) or CMC+0.2% (w/v). DDM and P-XMA-C11 were used as positive controls. Protein samples were stored at room temperature, and protein activity at a predetermined time was determined by measuring [^3H]-Leucine binding using SPA. SPA was performed using a total volume of 100 μL of […] of each protein sample solubilized in a buffer containing 450 mM NaCl, 50 nM [^3H]-Leucine and 0.125 mg ml^−1 copper chelate (His-Tag) YSi beads (Perkin Elmer, Denmark). A [^3H]-Leucine binding degree was measured using a MicroBeta liquid scintillation counter (Perkin Elmer).

[5] = molecular target: T1, human β2 adrenergic receptor (β2AR); assay: mBBr-β2AR fluorescence spectrum after dilution to CMC or less; type: biochemical; conditions: diluted with NH buffer, 30 minutes
Procedure: An experiment for comparing changes in protein structures of XMAs and DDM at CMC or less of an amphiphilic molecule was carried out.
Specifically, 0.5 μl of an unliganded mBB-labeled receptor solubilized in 20×CMC P-XMA-C11 or P-XMA-C12 at 50 μM was diluted with 500 μl of a NH buffer (20 mM HEPES pH 7.5, 100 mM NaCl). The protein was incubated for 30 minutes, and the mBBr spectrum was measured. The receptor solubilized in 0.1% DDM was diluted with a NH buffer, and used as a control.

SMILES | CMC [1] | CMC (wt %) [1] | [3H]-DHA binding degree of purified β2AR [2] | Rh (nm), hydrodynamic radius of micelles [3] | LeuT long-term stability (ligand binding activity) [4] | LeuT ligand binding activity maintained [4] | size distribution of micelles (number of micelle sets) ([3]; FIGS. 36 and 37) | structural change of β2AR on dilution to CMC or less [5]
CCCCCCCCCCCCC(CO[C@@H]1OC(CO)[C@@H](O[C@H]2OC(CO)[C@@H](O)C(O)C2O)C(O)C1O)(CO[C@@H]1OC(CO)[C@@H](O[C@H]2OC(CO)[C@@H](O)C(O)C2O)C(O)C1O)Cc1cccc(C[C@](CCCCCCCCCCCC)(CO[C@@H]2OC(CO)[C@@H](O[C@H]3OC(CO)[C@@H](O)C(O)C3O)C(O)C2O)CO[C@@H]2OC(CO)[C@@H](O[C@@H]3OC(CO)[C@@H](O)C(O)C3O)C(O)C2O)c1 (stereo partly drawn) [M-XMA-C12] | ~4.0 µM | ~0.0008 wt % | superior to O-XMA-C12, and similar to DDM | 3.4 ± 0.02 nm | substantial reinforcement of long-term stability of LeuT, compared with DDM; also recorded: higher stability than O-XMA-C12 | superior at maintaining the ligand binding activity of LeuT compared to DDM; also recorded: generally better performance than O-XMA-C12 |  | 
CCCCCCCCCCCCC(CO[C@@H]1OC(CO)[C@@H](O[C@@H]2OC(CO)[C@@H](O)C(O)C2O)C(O)C1O)(CO[C@@H]1OC(CO)[C@@H](O[C@@H]2OC(CO)[C@@H](O)C(O)C2O)C(O)C1O)Cc1ccccc1CC(CCCCCCCCCCCC)(CO[C@@H]1OC(CO)[C@@H](O[C@@H]2OC(CO)[C@@H](O)C(O)C2O)C(O)C1O)CO[C@@H]1OC(CO)[C@@H](O[C@@H]2OC(CO)[C@@H](O)C(O)C2O)C(O)C1O (stereo partly drawn) [O-XMA-C12] | ~6.0 µM | ~0.0011 wt % |  | 3.2 ± 0.03 nm | substantial reinforcement of long-term stability of LeuT, compared with DDM | superior at maintaining the ligand binding activity of LeuT compared to DDM |  | 
CCCCCCCCCCCC(CO[C@@H]1OC(CO)[C@@H](O[C@H]2OC(CO)[C@@H](O)C(O)C2O)C(O)C1O)(CO[C@@H]1OC(CO)[C@@H](O[C@H]2OC(CO)[C@@H](O)C(O)C2O)C(O)C1O)Cc1ccc(CC(CCCCCCCCCCC)(CO[C@@H]2OC(CO)[C@@H](O[C@H]3OC(CO)[C@@H](O)C(O)C3O)C(O)C2O)CO[C@@H]2OC(CO)[C@@H](O[C@H]3OC(CO)[C@@H](O)C(O)C3O)C(O)C2O)cc1 (stereo partly drawn) [P-XMA-C11] | ~3 µM and ~3.0 µM | ~0.0006 wt % | radioactive-ligand binding degree similar to the receptor purified by DDM | 3.3 ± 0.03 nm |  |  | two sets of micelles having different radii | less structural change
CCCCCCCCCCCC(CO[C@@H]1OC(CO)[C@@H](O[C@H]2OC(CO)[C@@H](O)C(O)C2O)C(O)C1O)(CO[C@@H]1OC(CO)[C@@H](O[C@H]2OC(CO)[C@@H](O)C(O)C2O)C(O)C1O)Cc1cccc(C[C@](CCCCCCCCCCC)(CO[C@@H]2OC(CO)[C@@H](O[C@H]3OC(CO)[C@@H](O)C(O)C3O)C(O)C2O)CO[C@@H]2OC(CO)[C@@H](O[C@@H]3OC(CO)[C@@H](O)C(O)C3O)C(O)C2O)c1 (stereo partly drawn) [M-XMA-C11] | ~6.0 µM | ~0.0011 wt % | higher radioactive-ligand binding degree than P-XMA-C11 | 3.2 ± 0.01 nm |  |  |  | 
